Common to all, as to type: cell-based
Experiment [1] has as its system DENV-1 strain TC974#666. Kind of experiment: Tetravalent RT-qPCR assay Protocol A, serotype 1. The following applies: Dengue virus, DENV1, 72 h, RT-qPCR serotype 1 TC974#666, Vero cells, day 3. As for the experimental part: (§1) The antiviral activity of the compounds of the invention was tested against DENV-1 strain TC974#666 (NCPV), DENV-2 strain 16681, DENV-3 strain H87 (NCPV) and DENV-4 strains H241 (NCPV) and EDEN (SG/06K2270DK1/2005; GenBank accession number QG398256) in a RT-qPCR assay. Therefore, Vero cells were infected with either DENV-1, or -2, or -3, or -4 in the presence or absence of test compounds. At day 3 post-infection, the cells were lysed and cell lysates were used to prepare cDNA of both a viral target (the 3′UTR of DENV; table 2) and a cellular reference gene (β-actin, table 2). Subsequently, a duplex real time PCR was performed on a Lightcycler480 instrument. The generated Cp value is inversely proportional to the amount of RNA expression of these targets. Inhibition of DENV replication by a test compound result in a shift of Cp's for the 3′UTR gene. On the other hand, if a test compound is toxic to the cells, a similar effect on β-actin expression will be observed. The comparative ΔΔCp method is used to calculate EC50, which is based on the relative gene expression of the target gene (3′UTR) normalized with the cellular housekeeping gene (β-actin). In addition, CC50 values were determined based on the Cp values acquired for the housekeeping gene β-actin.
(§2) The culture medium consisted of minimal essential medium supplemented with 2% of heat-inactivated fetal calf serum, 0.04% gentamycin (50 mg/mL) and 2 mM of L-glutamine. Vero cells, obtained from ECACC, were suspended in culture medium and 75 μL/well was added in 96-well plates (10000 cells/well), which already contain the antiviral compounds. Typically, these plates contain a 4-fold serial dilution of 9 dilution steps of the test compound at 200 times the final concentration in 100% DMSO (500 nL; final concentration range: 25 μM-0.00038 μM). In addition, each plate contains wells which are assigned as virus controls (containing cells and virus in the absence of compound) and cell controls (containing cells in the absence of virus and compound). Once the cells were added in the plates, the plates were incubated in a fully humidified incubator (37° C., 5% CO2) until the next day. Then, DENV-1 strain TC974#666, DENV-2 strain 16681, DENV-3 strain H87 or DENV-4 strains H241 or EDEN were added. […] In parallel, 25 μL of culture medium was added to the cell controls. Next, the plates were incubated for 3 days in a fully humidified incubator (37° C., 5% CO2). After 3 days, the supernatant was removed from the wells and the cells were washed twice with ice-cold PBS (˜100 μL). The cell pellets within the 96-well plates were stored at −80° C. for at least 1 day. Next, RNA was extracted using the Cells-to-CT™ lysis kit, according to the manufacture's guideline (Applied Biosystems). The cell lysates can be stored at −80° C. or immediately used in the reverse transcription step. In preparation of the reverse transcription step, mix A (table 3A) was prepared and 7.57 μL/well was dispensed in a 96-well plate. After addition of 5 μL of the cell lysates, a five minute denaturation step at 75° C. was performed (table 3B). Afterwards, 7.43 μL of mix B was added (table 3C) and the reverse transcription step was initiated (table 3D) to generate cDNA.
(§3) Finally, a RT-qPCR mix was prepared, mix C (table 4A), dispensed in 96-well LightCycler qPCR plates to which 3 μL of cDNA was added and the qPCR was performed according to the conditions in table 4B on a LightCycler 480. Using the LightCycler software and an in-house LIMS system, dose response curves for each compound were calculated and the half maximal effective concentration (EC50) and the half maximal cytotoxic concentration (CO50) were determined (Tables 6-9).
A general note: In qPCR the cycle at which signal appears reflects the starting amount.

The subject of experiment [2] is DENV-4 strain EDEN. Kind of experiment: Tetravalent RT-qPCR assay Protocol A, serotype 4 EDEN. The following applies: Dengue virus, DENV4, 72 h, RT-qPCR serotype 4 EDEN, Vero cells, day 3. As for the experimental part: as §1, §2, §3
Experiment [3] concerns DENV-2 NGC-Tongalike. Kind of experiment: Tetravalent RT-qPCR assay Protocol B, serotype 2. The following applies: Dengue virus, DENV2, Vero, 96 h. As for the experimental part:
(§4) Vero cells (4×10^4) were seeded in 96-well plates. […] Following a 2 hour incubation period, the cell monolayer was washed 3 times with assay medium to remove residual, non-adsorbed virus and cultures were further incubated for either 4 days (DENV-2 NGC-Tongalike) or 7 days (DENV-1 Djibouti strain D1/H/IMTSSA/98/606, DENV-3 strain H87 prototype, DENV-4 strain H241′) in the presence of the inhibitor. Supernatant was harvested and viral RNA load was determined by real-time quantitative RT-PCR. The 50% effective concentration (EC50), which is defined as the compound concentration that is required to inhibit viral RNA replication by 50%, was determined using logarithmic interpolation (Tables 7 and 8). RNA was isolated from 100 μL supernatant with the NucleoSpin 96 Virus kit (Filter Service, Duren, Germany) as described by the manufacturer. The sequences of the TaqMan primers (DENV-For, DENV-Rev; Table 5) and TaqMan probes (DENV-Probe Table 5) were selected from non-structural gene 3 (NS3) or NS5, of the respective flaviviruses using Primer Express software (version 2.0; Applied Biosystems, Lennik, Belgium). The TaqMan probe was fluorescently labelled with 6-carboxyfluorescein (FAM) at the 5′ end as the reporter dye, and with minor groove binder (MGB) at the 3′ end as the quencher (Table 5). One-step, quantitative RT-PCR was performed in a total volume of 25 μL, containing 13.9375 μL H2O, 6.25 μL master mix (Eurogentec, Seraing, Belgium), 0.375 μL forward primer, 0.375 μL reverse primer, 1 μL probe, 0.0625 μL reverse transcriptase (Eurogentec) and 3 μL sample. RT-PCR was performed using the ABI 7500 Fast Real-Time PCR System (Applied Biosystems, Branchburg, N.J., USA) using the following conditions: 30 min at 48° C. and 10 min at 95° C., followed by 40 cycles of 15 s at 95° C. and 1 min at 60° C. The data was analyzed using the ABI PRISM 7500 SDS software (version 1.3.1; Applied Biosystems). For absolute quantification, standard curves were generated using 10-fold dilutions of template preparations of known concentrations.

Experiment [4] relates to DENV-4 strain H241. Kind of experiment: Tetravalent RT-qPCR assay Protocol A, serotype 4 H241. The settings on record: Dengue virus, DENV4, 72 h, RT-qPCR serotype 4 H241, Vero cells, day 3. The method, then: as §1, §2, §3
Experiment [5] deals with DENV-3 strain H87 prototype. The experiment can be described thus: Tetravalent RT-qPCR assay Protocol B, serotype 3. The following applies: Dengue virus, DENV3, 168 h, RT-qPCR serotype 3 H87, Vero cells, 7 days. The method, then: as §4

Take `COc1cc(NC(C(=O)c2c[nH]c3c(Cl)c(OC)ccc23)c2ccc(F)cc2OC)cc(OCCO)c1` (single isomer, unassigned) [Compound 8A, 1-(7-chloro-6-methoxy-1H-indol-3-yl)-2-(4-fluoro-2-methoxyphenyl)-2-((3-(2-hydroxyethoxy)-5-methoxyphenyl)amino)ethanone]: the EC50 was 32 nM in experiment [1]; 21 nM in experiment [2]; less than 0.24 nM in experiment [3]; 520 nM in experiment [4]; 29 nM in experiment [5].
In the case of `COc1cc(NC(C(=O)c2c[nH]c3cc(F)c(F)cc23)c2ccc(F)cc2OC)cc(OCCO)c1` (single isomer, unassigned) [Compound 10B, 1-(5,6-difluoro-1H-indol-3-yl)-2-(4-fluoro-2-methoxy-phenyl)-2-((3-(2-hydroxyethoxy)-5-methoxyphenyl)amino)ethanone], the EC50 in experiment [1] was 16 nM; in experiment [2], 20 nM; in experiment [3], 1.6 nM; in experiment [4], 390 nM; in experiment [5] it was less than 22 nM.

Broadly, the EC50 is the concentration at which the effect is half-maximal. The low end stands for greater potency, the high end for weaker potency.

For the origin of these results see patent US10206902B2, “Mono- or di-substituted indoles as dengue viral replication inhibitors” (priority 2014, dated 2019).
